# Measured values: patent US4939175A, “Use of N,N-dimethyl-1-[1-(4-chlorophenyl)cyclobutyl]-3-methylbutylamine” (priority 1988, dated 1990)
# Like-named read-outs stand apart in the source and are kept apart here.
# How the values were obtained:
# [1] = tested on: depletion of serotonin induced by p-chloroamphetamine; assay: Depletion of serotonin (5-HT) induced by p-chloroamphetamine (whole brain); format: in vivo, SlC:ddy mice; settings: p-chloroamphetamine 10 mg/kg i.p., control 48 ± 6, **p < 0.01
# Method: Effect of the test samples on the depletion of serotonin (hereinafter referred to as "5-HT") induced by p-chloroamphetamine
# The test sample was administered orally to SlC:ddy made mice and after 60 minutes, p-chloroamphetamine (10 mg/kg) was injected intraperitoneally.
# At 6 hours later, the mice were decapitated. The whole brain was rapidly removed and homogenized in 0.06M perchloric acid with N-methylserotonin (10 μg/ml) as an internal standard. The homogenate was centrifuged and then the amount of 5-HT in the supernatant was determined by high performance liquid chromatography with electrochemical detection.
# Amitriptyline was used as the reference drug and distilled water was used as control sample.
# [2] = tested on: depletion of dopamine induced by MPTP in mice whole brain; assay: animal or person; format: in vivo, SlC: ddy strain male mice; settings: Mus musculus, po, 168 h, read-out: Percentage of the amount of dopamine in the treated group against the amount of dopamine in the non-treated group
# [3] = tested on: inhibition of conditioned avoidance response induced by reserpine in rats; assay: Inhibition of conditioned avoidance response induced by reserpine in rats; format: in vivo, Std-Wistar male rats; settings: for Conditioned avoidance response 1 hour after administration of the test sample: reserpine 1 mg/kg, control 2; for Conditioned avoidance response before administration of reserpine: baseline before test sample; for Conditioned avoidance response 18 to 20 hours after administration of reserpine: reserpine 1 mg/kg i.p., before test sample
# Method: Effect of the test samples on the inhibition of conditioned avoidance response induced by reserpine in rats
# Std-Wistar male rats (8 to 9 week age) weighing of 270 to 300 g were fed under the conditions of 23±2° C., 60±10% R.H. and artificial lighting from 7 AM to 7 PM for a week, and then subjected to the test.
# The test was carried out by using a shuttle box. The shuttle box used herein was a rectangular box, which was equipped with a buzzer for conditioned stimulus at the upper part and grids of 2 mm in diameter, for non-conditioned stimulus, at intervals of 1 cm on the floor, and divided into two equal sized compartments by a hurdle of 5 cm in height.
# The schedule for inducing the conditioned avoidance response was controlled by a computer, and all the observed results of avoidance or escape response were recorded automatically.
# The avoidance condition was carried out as follows:
# After the conditioned stimulus of the buzzer with sound signal for 5 seconds, the non-conditioned stimulus of the foot shock was given for 5 seconds to rats. Each stimulus was stopped immediately, if the rat jumped over the hurdle to the other compartment during the conditioned or non-conditioned stimulus.
# The above-mentioned rats were put on the trials for 25 times. Then the rats were given reserpine (1 mg/kg, intraperitoneally). The rats were tested for 15 times at the time of 18 to 20 hours after the reserpine administration, and then they were divided into several groups ([…]).
# The test sample was dissolved in distilled water and administered orally to each group at 24 to 26 hours after the reserpine administration. For reference, distilled water as control sample, and amitriptyline and amantadine as test drugs were used.
# At one hour after the test sample administration, the rats were put on the trials for 25 times and the conditioned avoidance responce was compared between the control group (distilled water administration), the test compound-administered group and the test drug-administered groups.
# [4] = tested on: re-uptake of ^3 H-dopamine; assay: Re-uptake of 3H-dopamine in vitro (synaptosomes, P2 fraction of whole brain); format: biochemical, Std: Wistar strain male rat; settings: rat brain synaptosomes, 37° C., 20 minutes
# Method: Effect of the test samples on the re-uptake of ^3 H-dopamine in vitro
# P2 fraction was prepared from the whole brain of Std: Wistar strain male rat. […] The obtained mixture was incubated at 37° C. for 20 minutes and then subjected to the suction filtration with Whatman GF/B filter paper.
# The obtained filter paper was put in a vial containing 10 ml of toluene type scintillator and its radioactivity was measured by means of liquid scintillation counter. The amount of the specific re-uptake of ^3 H-dopamine was obtained by subtracting the amount of re-uptake at 0° C. as blank.
# [5] = tested on: circling behavior in rats with unilateral substantia nigra lesions; assay: Circling behavior in rats with unilateral substantia nigra lesions; format: in vivo, Std: Wistar male rats; settings: 50 mg/kg oral, 2 hours after; control 0.1 ± 0.4
# Method: Effect of the test samples on circling behavior in rats with unilateral substantia nigra lesions
# Std: Wistar male rats (8 heads/group) were used. The rat with unilateral substantia nigra lesions was made by injecting 8 μg/4 μl of 6-hydroxydopamine to the right side of substantia nigra.
# The test sample was administered orally to the rat. At 2 hours later, the number of circling behavior per 10 minutes was counted.
# Amantadine was used as the reference drug and distilled water was used as control sample.
# [6] = Acute toxicity, oral, mice; design: species or system SlC:ddy male mice; settings: mouse, in vivo, read-out: Number of dead mice per 10 mice
# Method: SlC:ddy male mice (10 heads/group) were used.
# After the oral administration of the test smaple, desipramine was used as the test drug, to the mice, the number of the dead mice was counted at 0.5, 1, 2, 4, 18 and 24 hours respectively after the oral administration.
# [7] = tested on: depletion of norepinephrine induced by 6-hydroxydopamine in rat heart; assay: Depletion of norepinephrine induced by 6-hydroxydopamine in rat heart; format: in vivo, Std: Wistar male rats; settings: 6-hydroxydopamine 20 mg/kg i.p., control 20 ± 4, non-treatment 425 ± 49, **p < 0.01
# Method: Effect of the test samples on the depletion of norepinephrine induced by 6-hydroxydopamine in rat heart.
# The test sample was administered orally to Std: Wistar male rats and after 30 minutes, 6-hydroxydopamine (20 mg/kg) was injected intraperitoneally.
# At 16 hours after injection of 6-hydroxydopamine, the rats were killed. The whole heart was rapidly removed and homogenized in 0.05M perchloric acid with isoproterenol (10 mg/ml) as an internal standard. The homogenate was centrifuged and then the amount of norepinephrine in the supernatant was determined by means of high performance liquid chromatography with electrochemical detection.
# Desipramine was used as the reference drug and distilled water was used as control sample.
# [8] = Experiment I, 10 mg/kg oral, MPTP 50 mg/kg s.c., control 71 ± 11, *P < 0.05, **P < 0.01
# [9] = Experiment I, 30 mg/kg oral, MPTP 50 mg/kg s.c., control 71 ± 11, *P < 0.05, **P < 0.01
compound,measurement,setting,value
"CN(C)CCC=C1c2ccccc2CCc2ccccc21 [Amitriptyline, amitriptyline]",Percentages of the amount of 5-HT in the treated group against the amount of 5-HT in the non-treated group,[1]; 10 mg/kg oral,50 ± 4%
same,Percentages of the amount of 5-HT in the treated group against the amount of 5-HT in the non-treated group,[1]; 30 mg/kg oral,56 ± 10%
same,Percentages of the amount of 5-HT in the treated group against the amount of 5-HT in the non-treated group,[1]; 90 mg/kg oral,92 ± 8%
same,response vs control in vivo at 10 mg/kg,[2]; [8],81 ± 15%
same,response vs control in vivo at 30 mg/kg,[2]; [9],77 ± 15%
same,Conditioned avoidance response 1 hour after administration of the test sample,[3]; 10 mg/kg oral,1%
same,Conditioned avoidance response 1 hour after administration of the test sample,[3]; 40 mg/kg oral,0%
same,Conditioned avoidance response before administration of reserpine,[3]; 10 mg/kg group,93%
same,Conditioned avoidance response before administration of reserpine,[3]; 40 mg/kg group,94%
same,Conditioned avoidance response 18 to 20 hours after administration of reserpine,[3]; 10 mg/kg group,1%
same,Conditioned avoidance response 18 to 20 hours after administration of reserpine,[3]; 40 mg/kg group,7%
same,IC50,[4]; Experiment I,7.7 µM
same,IC50,[4]; Experiment II,8.2 µM
"NC12CC3CC(CC(C3)C1)C2 [Amantadine, amantadine]",Number of circling behavior per 10 min.,[5],0.4 ± 0.7 per 10 min.
same,response vs control in vivo at 10 mg/kg,"[2]; Experiment II, 10 mg/kg oral, MPTP 50 mg/kg s.c., control 88 ± 20, *P < 0.05",77 ± 21%
same,response vs control in vivo at 30 mg/kg,"[2]; Experiment II, 30 mg/kg oral, MPTP 50 mg/kg s.c., control 88 ± 20, *P < 0.05",64 ± 16%
same,Conditioned avoidance response 1 hour after administration of the test sample,[3]; 10 mg/kg oral,2%
same,Conditioned avoidance response 1 hour after administration of the test sample,[3]; 50 mg/kg oral,38%
same,Conditioned avoidance response before administration of reserpine,[3]; 10 mg/kg group,94%
same,Conditioned avoidance response before administration of reserpine,[3]; 50 mg/kg group,95%
same,Conditioned avoidance response 18 to 20 hours after administration of reserpine,[3]; 10 mg/kg group,3%
same,Conditioned avoidance response 18 to 20 hours after administration of reserpine,[3]; 50 mg/kg group,3%
"CNCCCC12CCC(c3ccccc31)c1ccccc12 [Maprotiline, maprotiline]",response vs control in vivo at 10 mg/kg,[2],65 ± 17%
same,response vs control in vivo at 30 mg/kg,[2],74 ± 17%
"CN(C)CC/C=C1\c2ccccc2CSc2ccccc21 [Dosulepin, dosulepin]",response vs control in vivo at 10 mg/kg,[2]; [8],70 ± 13%
same,response vs control in vivo at 30 mg/kg,[2]; [9],77 ± 12%
"CNCCCN1c2ccccc2CCc2ccccc21 [Desipramine, desipramine]",mortality at 0.5 h,[6]; 200 mg/kg oral,0%
same,mortality at 1 h,[6]; 200 mg/kg oral,0%
same,mortality at 2 h,[6]; 200 mg/kg oral,0%
same,mortality at 4 h,[6]; 200 mg/kg oral,0%
same,mortality at 18 h,[6]; 200 mg/kg oral,0%
same,mortality at 24 h,[6]; 200 mg/kg oral,0%
same,mortality at 0.5 h,[6]; 800 mg/kg oral,100%
same,mortality at 1 h,[6]; 800 mg/kg oral,100%
same,mortality at 2 h,[6]; 800 mg/kg oral,100%
same,mortality at 4 h,[6]; 800 mg/kg oral,100%
same,mortality at 18 h,[6]; 800 mg/kg oral,100%
same,mortality at 24 h,[6]; 800 mg/kg oral,100%
same,Amount of Norepinephrine,[7]; 0.625 mg/kg oral,35 ± 4 ng/g
same,Amount of Norepinephrine,[7]; 1.25 mg/kg oral,74 ± 26 ng/g
same,Amount of Norepinephrine,[7]; 2.5 mg/kg oral,211 ± 79 ng/g
same,response vs control in vivo at 10 mg/kg,[2]; [8],74 ± 15%
same,response vs control in vivo at 30 mg/kg,[2]; [9],79 ± 18%
"CN(C)CCCN1c2ccccc2CCc2ccccc21 [Imipramine, imipramine]",IC50,[4]; Experiment II,15 µM
"CN1CCN2c3ccccc3Cc3ccccc3C2C1 (stereo not drawn) [Mianserin, mianserin]",response vs control in vivo at 10 mg/kg,[2],72 ± 16%
same,response vs control in vivo at 30 mg/kg,[2],69 ± 8%
"CN(C)CCCN1c2ccccc2CCc2ccc(Cl)cc21 [Clomipramine, clomipramine]",response vs control in vivo at 10 mg/kg,[2],74 ± 13%
same,response vs control in vivo at 30 mg/kg,[2],74 ± 14%
"CN[C@@H](C)Cc1ccccc1 [Methamphetamine, methamphetamine]",response vs control in vivo at 3 mg/kg,"[2]; Experiment I, 3 mg/kg oral, MPTP 50 mg/kg s.c., control 71 ± 11, *P < 0.05, **P < 0.01",97 ± 14%
same,response vs control in vivo at 3 mg/kg,"[2]; Experiment II, 3 mg/kg oral, MPTP 50 mg/kg s.c., control 88 ± 20, *P < 0.05",102 ± 21%
same,response vs control in vivo at 3 mg/kg,[2],91 ± 20%
